ChEMBL document CHEMBL1201862, “PubChem BioAssay data set” (2004)
Activity calls are given as the source filed them.

Key:
[1] = viability of HCT116 lacking mutant beta-catenin – cell-based, human colon tumor, dose response (AID 1045); type: functional;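 also: HCT116 colon tumor cells with beta catenin knocked out; cells exposed to compound for 60 hours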
[2] = tested on: HT-1080; assay: HT1080 cell viability loss – fluorescence readout (AID 620); type: functional, cell-based; conditions: Homo sapiens
[3] = Vero E6 cell cytotoxicity, dose response, cytotoxicity control for non-replicating M. tuberculosis project, secondary assay (AID 492998); type: functional, VeroE6; conditions: Vero C1008
[4] = tested on: Streptococcus sp. 'group A'; assay: Streptococcus pyogenes SK(-)GAS viability under kanamycin – luminescence, BacTiterGlo, confirmation, counter-screen for streptokinase expression inhibitor project, dose response (AID 1900); type: functional, organism-based
[5] = tested on: H4; assay: Inhibitors of Prion Protein 5' UTR mRNA Measured in Cell-Based System Using Plate Reader - 2078-01_Inhibitor_Dose_DryPowder_Activity. [Related pubchem assays (depositor defined):AID488894]; type: functional; conditions: Homo sapiens
[6] = tested on: H4; assay: Amyloid Precursor 5' UTR neuroblastoma cell reporter line Measured in Cell-Based System Using Plate Reader - 2078-04_Inhibitor_Dose_DryPowder_Activity. [Related pubchem assays (depositor defined):AID488894]; type: functional; conditions: Homo sapiens
[7] = target: Cytochrome P450 2D6 (Homo sapiens, UniProt P10635);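 also: CYP2D6 member of a cytochrome P450 panel assay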
Cytochrome P450 2D6, sequence (P10635 whole entry): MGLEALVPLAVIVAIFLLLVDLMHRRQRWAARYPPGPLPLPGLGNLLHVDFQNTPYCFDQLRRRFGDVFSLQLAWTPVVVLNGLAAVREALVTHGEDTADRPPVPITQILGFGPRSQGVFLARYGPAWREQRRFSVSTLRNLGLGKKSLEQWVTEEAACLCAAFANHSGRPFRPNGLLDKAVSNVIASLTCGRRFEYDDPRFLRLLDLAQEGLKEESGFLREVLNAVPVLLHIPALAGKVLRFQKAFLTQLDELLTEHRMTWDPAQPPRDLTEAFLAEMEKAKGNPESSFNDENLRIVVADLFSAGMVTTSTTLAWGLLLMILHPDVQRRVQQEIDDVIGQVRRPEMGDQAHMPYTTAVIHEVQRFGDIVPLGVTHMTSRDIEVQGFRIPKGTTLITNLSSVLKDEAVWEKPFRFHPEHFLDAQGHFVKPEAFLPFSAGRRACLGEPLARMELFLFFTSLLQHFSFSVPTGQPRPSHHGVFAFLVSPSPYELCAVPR

[8] = target: T1, Estrogen receptor (Homo sapiens, UniProt P03372);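 also: potency for inhibiting coactivator peptide recruitment to the receptor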
T1 sequence (P03372 whole entry): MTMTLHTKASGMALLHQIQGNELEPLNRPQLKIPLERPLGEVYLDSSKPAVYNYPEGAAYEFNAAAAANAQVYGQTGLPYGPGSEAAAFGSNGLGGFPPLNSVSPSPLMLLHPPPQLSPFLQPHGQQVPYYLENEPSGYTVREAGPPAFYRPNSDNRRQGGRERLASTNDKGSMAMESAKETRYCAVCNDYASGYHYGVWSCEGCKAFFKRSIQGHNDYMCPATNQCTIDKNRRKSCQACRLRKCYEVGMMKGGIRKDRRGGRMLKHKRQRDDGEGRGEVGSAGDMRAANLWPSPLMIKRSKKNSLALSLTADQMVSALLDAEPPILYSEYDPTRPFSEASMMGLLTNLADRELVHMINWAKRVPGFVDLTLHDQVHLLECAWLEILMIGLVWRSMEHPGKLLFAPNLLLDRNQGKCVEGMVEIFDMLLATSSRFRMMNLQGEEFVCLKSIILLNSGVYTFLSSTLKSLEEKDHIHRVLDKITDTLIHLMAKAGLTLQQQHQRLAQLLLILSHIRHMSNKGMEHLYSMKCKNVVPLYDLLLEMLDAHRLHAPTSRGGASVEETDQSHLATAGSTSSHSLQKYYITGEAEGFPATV

[9] = NIH3T3 cell viability loss – ATP luminescence, mouse fibroblasts, counter-screen, dose response (AID 2010); type: functional, cell-based;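 also: cells exposed to compound for about 90 hours before reading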
[10] = target: T2, Heat shock factor protein 1 (Mus musculus, UniProt P38532); assay: decrease of HSF1-responsive luciferase luminescence – cell-based, NIH3T3, dose retest, confirmation (AID 2382); type: functional;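 also: NIH3T3 fibroblasts with HSF1-driven luciferase reporter stressed by proteasome inhibitor MG132; luminescence from HSF1-driven luciferase expression after 8 hours of MG132 stress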
T2 sequence (P38532 whole entry): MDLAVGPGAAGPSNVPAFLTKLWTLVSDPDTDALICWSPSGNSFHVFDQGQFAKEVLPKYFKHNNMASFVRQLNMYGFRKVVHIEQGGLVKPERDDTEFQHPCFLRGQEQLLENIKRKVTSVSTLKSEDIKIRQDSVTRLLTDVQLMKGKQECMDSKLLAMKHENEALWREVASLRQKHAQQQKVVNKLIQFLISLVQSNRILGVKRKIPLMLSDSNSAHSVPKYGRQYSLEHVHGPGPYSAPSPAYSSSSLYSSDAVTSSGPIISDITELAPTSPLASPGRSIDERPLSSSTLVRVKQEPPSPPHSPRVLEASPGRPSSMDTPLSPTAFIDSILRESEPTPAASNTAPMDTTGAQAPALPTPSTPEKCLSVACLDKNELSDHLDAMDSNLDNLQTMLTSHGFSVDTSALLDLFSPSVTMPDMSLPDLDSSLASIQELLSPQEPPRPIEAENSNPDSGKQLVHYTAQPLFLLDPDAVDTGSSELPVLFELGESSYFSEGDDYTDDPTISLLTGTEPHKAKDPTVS

[11] = tested on: Streptococcus; assay: GAS UMAA2166 growth inhibition – luminescence, BacTiterGlo, counter-screen for streptokinase expression inhibitor project, dose response (AID 1915); type: functional, organism-based;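 also: potency for reduction of bacterial viability or growth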
[12] = Trypanosoma cruzi growth suppression in host cells – NIH3T3 host cells, beta-gal luminescence, confirmation (AID 2044); type: functional, cell-based;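 also: intracellular parasites grown in NIH/3T3 mouse fibroblasts as host cells; luminescent beta-galactosidase reporter signal from transgenic T. cruzi replicating inside host cells; inhibitors lower the luminescence signal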
[13] = cells; type: functional
[14] = tested on: H4; assay: inhibitors of control reporter signal in H4 cells – cell-based, plate reader, dry powder samples, counter-screen for prion reporter project, dose response (AID 540255); type: functional; conditions: Homo sapiens
[15] = THP-1 cell cytotoxicity, dose response, cytotoxicity control for non-replicating M. tuberculosis project (AID 489025); type: functional
[16] = target: T3, Microphthalmia-associated transcription factor (Homo sapiens, UniProt O75030); assay: reducers of TRPM1 reporter luminescence, concentration series – cell-based, SK-MEL-5, cherry-picked, set 3, MITF inhibitor project, dose response (AID 493073); type: functional;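 also: SK-MEL-5 melanoma cells with luciferase driven by the MITF target TRPM1 promoter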
T3 sequence (O75030 whole entry): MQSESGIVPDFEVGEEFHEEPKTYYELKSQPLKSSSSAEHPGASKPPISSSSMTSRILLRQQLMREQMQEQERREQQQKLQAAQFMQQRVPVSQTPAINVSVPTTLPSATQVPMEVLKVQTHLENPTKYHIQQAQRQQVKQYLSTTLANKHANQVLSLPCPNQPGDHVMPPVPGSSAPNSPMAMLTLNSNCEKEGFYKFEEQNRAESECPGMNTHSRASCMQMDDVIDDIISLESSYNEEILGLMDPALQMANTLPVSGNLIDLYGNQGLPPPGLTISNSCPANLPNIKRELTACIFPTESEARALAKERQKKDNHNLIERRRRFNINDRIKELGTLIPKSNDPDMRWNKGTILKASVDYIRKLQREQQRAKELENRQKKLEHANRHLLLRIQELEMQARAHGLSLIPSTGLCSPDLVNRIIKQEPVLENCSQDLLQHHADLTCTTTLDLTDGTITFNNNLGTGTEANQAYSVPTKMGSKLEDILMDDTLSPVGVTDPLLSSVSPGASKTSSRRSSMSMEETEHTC

[17] = viability of PTEN-deleted HCT116 cells – cell-based, HCT116 PTEN knockout, dose response (AID 1047); type: functional;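 also: HCT116 colon tumor cells with PTEN knocked out; cells exposed to compound for 60 hours before readout; potency for loss of cell viability measured by luminescence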
[18] = HEK-293T viability loss after treatment – luminescence, T-cell screen hits, cytotoxicity control for TCR NF-kB inhibitor project, dose response (AID 489026); type: functional, cell-based;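 also: cells exposed to compound about 14 hours before the viability readout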
[19] = target: T4, Streptokinase A (Streptococcus pyogenes serotype M1, UniProt P10520); assay: viability-normalized secreted streptokinase activity reduction – plasminogen activation absorbance, OD405, dose response (AID 1914); type: functional, Streptococcus pyogenes M1 GAS;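 also: secreted streptokinase activity via plasminogen activation per viability signal from cell pellet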
T4 sequence (P10520 whole entry): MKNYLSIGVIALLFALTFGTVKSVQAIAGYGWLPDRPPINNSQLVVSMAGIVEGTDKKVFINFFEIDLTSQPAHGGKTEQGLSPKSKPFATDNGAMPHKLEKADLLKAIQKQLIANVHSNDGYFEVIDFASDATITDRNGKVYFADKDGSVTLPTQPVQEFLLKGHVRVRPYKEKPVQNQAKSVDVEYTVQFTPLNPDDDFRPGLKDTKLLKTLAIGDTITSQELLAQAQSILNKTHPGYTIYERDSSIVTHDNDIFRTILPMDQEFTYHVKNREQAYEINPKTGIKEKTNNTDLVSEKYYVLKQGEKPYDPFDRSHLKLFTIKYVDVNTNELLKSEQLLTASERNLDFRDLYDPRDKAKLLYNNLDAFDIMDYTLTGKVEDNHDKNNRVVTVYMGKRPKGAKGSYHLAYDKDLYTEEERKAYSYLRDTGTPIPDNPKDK

[20] = target: Cytochrome P450 2C19 (Homo sapiens, UniProt P33261); assay: Cytochrome panel assay with activity outcomes. Panel member name: p450-cyp2c19 Compounds with AC50 equal or less than 10 uM are considered active; type: functional; conditions: read-out: AC50
Cytochrome P450 2C19, sequence (P33261 whole entry): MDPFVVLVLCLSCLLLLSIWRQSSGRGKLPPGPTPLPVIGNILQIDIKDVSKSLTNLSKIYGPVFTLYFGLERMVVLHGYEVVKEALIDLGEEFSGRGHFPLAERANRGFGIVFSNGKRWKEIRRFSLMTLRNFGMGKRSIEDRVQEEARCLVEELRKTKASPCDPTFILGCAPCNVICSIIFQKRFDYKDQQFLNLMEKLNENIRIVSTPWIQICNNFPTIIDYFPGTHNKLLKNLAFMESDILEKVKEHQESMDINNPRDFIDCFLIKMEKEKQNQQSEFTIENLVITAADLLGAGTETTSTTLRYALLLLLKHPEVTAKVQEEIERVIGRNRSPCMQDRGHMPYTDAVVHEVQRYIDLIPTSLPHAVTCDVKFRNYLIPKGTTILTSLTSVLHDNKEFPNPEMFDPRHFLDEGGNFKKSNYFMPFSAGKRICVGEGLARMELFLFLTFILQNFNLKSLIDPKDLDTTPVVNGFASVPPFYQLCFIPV

[21] = target: Luciferin 4-monooxygenase (Photinus pyralis, UniProt P08659); assay: Counter Screen for Luciferase-based Assay Positives. [Related pubchem assays: 620, 618, 411 ]
Luciferin 4-monooxygenase, sequence (P08659 whole entry): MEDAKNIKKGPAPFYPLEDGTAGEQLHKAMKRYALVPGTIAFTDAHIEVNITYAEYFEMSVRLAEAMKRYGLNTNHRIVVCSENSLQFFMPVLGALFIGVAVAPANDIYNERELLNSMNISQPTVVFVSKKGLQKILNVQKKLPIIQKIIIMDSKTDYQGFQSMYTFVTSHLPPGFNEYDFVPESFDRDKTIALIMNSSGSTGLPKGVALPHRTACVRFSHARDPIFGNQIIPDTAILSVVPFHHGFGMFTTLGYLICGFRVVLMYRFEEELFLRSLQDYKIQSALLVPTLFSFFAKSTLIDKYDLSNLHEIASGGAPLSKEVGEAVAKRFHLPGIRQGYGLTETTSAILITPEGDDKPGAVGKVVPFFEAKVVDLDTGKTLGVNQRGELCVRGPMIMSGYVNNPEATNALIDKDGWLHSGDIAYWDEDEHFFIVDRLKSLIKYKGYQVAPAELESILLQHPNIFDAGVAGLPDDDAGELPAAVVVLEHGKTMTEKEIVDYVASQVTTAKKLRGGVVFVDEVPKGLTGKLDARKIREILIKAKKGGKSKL

[22] = tested on: HEK293; assay: cells; conditions: Homo sapiens
[23] = blockers of HIV-1 envelope-mediated cell-cell fusion – cherry-pick, dose response (AID 652057); type: functional, cell-based
[24] = tested on: HEK293; assay: cells; conditions: Homo sapiens; remark: listed apart in the source
[25] = HIV-1 AD8 envelope cell-cell fusion blockers – cherry-pick, dose response (AID 652062); type: functional, cell-based;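 also: luciferase signal from cell-cell fusion driven by HIV-1 clade B AD8 Env; potency is for inhibitors of fusion seen as a drop in luminescence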
[26] = blockers of HIV-1 ZM109 envelope-driven cell-cell fusion – HeLa effector, CEM target cells, luciferase, cherry-pick, dose response (AID 652058); type: functional, cell-based;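 also: luciferase signal from HIV-1 Env mediated cell-cell fusion of effector and target cells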
[27] = off-target signal loss in HeLa-CEM21 co-culture – HeLa F-luc CTL cells, cherry-picked, counter-screen for HIV-1 Env fusion inhibitor project, dose response (AID 652040); type: functional, cell-based;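 also: potency for signal decrease marking cytotoxic or nonspecific inhibition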

## Cc1ccc(C(=O)N/N=C/c2ccc([N+](=O)[O-])s2)cc1
[1]
  EC50: 3.5 µM (active)
[2]
  EC50: > 50 µM (not active)
[3]
  CC50: 11.5 µM (active)
[4]
  EC50: 5.16 µM (active)
[5]
  AC50: 0.875 µM (active)
[6]
  AC50: 3 µM (active)
[7]
  AC50: 15.8 µM (inconclusive)
[8]
  IC50: 21.1 µM (active)
[9]
  EC50: > 30 µM (not active)
[10]
  EC50: 0.324 µM (active)
[11]
  EC50: 14.3 µM (active)
[12]
  EC50: 0.72 µM (active)
[13]
  IC50: 5.2 µM (active)
[14]
  AC50: 3.18 µM (active)
[15]
  CC50: 12.2 µM (active)
[16]
  AC50: 2.2 µM (active)
[17]
  EC50: 3.05 µM (active)
[18]
  IC50: > 80 µM (inactive)
[19]
  EC50: > 150 µM (not active)
[20]
  AC50: 39.8 µM (inconclusive)
[21]
  EC50: 3.5 µM (active)

## COc1ccc(Cl)cc1CC1(C)C(=O)Nc2ccc(S(=O)(=O)NC3CCCCC3)cc21 (configuration not stated)
[22]
  EC50: > 59.6 µM (inactive)
[23]
  AC50: 0.749 µM (active)
[24]
  EC50: > 59.6 µM (inactive)
[25]
  AC50: 3.04 µM (active)
[26]
  AC50: 0.768 µM (active)
[27]
  AC50: 1.07 µM (active)
